As to `CCOc1ccc2c(c1)n(C(C)(C)CC(C)(C)C)c(=O)n2S(=O)(=O)c1ccc(NC(=O)N(CC)CC)cc1OC`, the melting point (in general, the temperature, or range, at which the solid turns liquid) is 225 °C.

`CC(C)C[C@H](NC(=O)OC(C)(C)C)[C@@H](O)c1ncnn1C` displayed a melting point of 144 to 145 °C.

Molecule `Cc1cc(C)c(C2CN(c3cc4[nH]cc(C(=O)O)c(=O)c4cc3F)CCN2)o1` (configuration not stated) gave a melting point of 230 to 232 °C.

In the case of `COc1cccc(CNC(=O)c2nc3sc(C(N)=O)c(C)c3c(=O)[nH]2)c1`, the melting point is 258 °C.

For `CNC(=O)C(NC(=O)C(CC(C)C)C(S)CC(=O)OC)C(C)OCc1ccccc1` (configuration not stated), the melting point lay in the range of 113 to 119 °C.

In turn, `Cc1cc(NC(=O)C2=C(O)c3ccccc3S(=O)(=O)CC2)no1` returned a melting point of 226 to 228 °C.

`Cc1cccc2c1N(CC(=O)N1CC3CCC(CC3)C1)C(=O)C(NC(=O)c1cc3ccccc3[nH]1)N=C2C1CCCCC1` (racemic) gave a melting point of 206 to 212 °C.

As for `ON=c1c2nccc3cccc(c32)n2cccc12`, the melting point stood at 254 °C.

Consider `CCCc1c(OCCCOc2ccc3c(c2CCC)OC(C(=O)O)(C2CC2C(=O)O)CC3)ccc(C(C)=O)c1O` (configuration not stated), for which the melting point is 138 to 140 °C.

Turning to `COc1cc([N+](=O)[O-])c(CC(=O)O)c(Cl)c1O`, the melting point worked out at 231 °C.

With `COc1nc(C)nc(OC)c1[N+](=O)[O-]`, the melting point was 114 to 115 °C.

`CC(C)(C)n1nc2c(N)nc3ccccc3c2c1CCCNS(C)(=O)=O`: the melting point is 223 to 224 °C.

In turn, `Fc1ccc(-c2nc(C(F)(F)F)nc(Cl)c2-c2ccccc2)cc1` showed a melting point of 67 to 68 °C.

The molecule `COc1c(SCCCN2CCC(Cc3ccccc3)CC2)ccnc1CSc1nc2ccccc2[nH]1` had a melting point of 73 to 75 °C.

`COc1cc2c3c(c1)c(=O)c(Cc1cccnc1)cn3-c1cc(Br)ccc1O2` gave a melting point of 49.7 to 50.9 °C.

The molecule `CC(=O)OCc1nc2cc(Cl)c(C)cc2c(=O)n1C` gave a melting point of 110 to 112 °C.

In turn, `O=C(O)CCC(=NO)c1ccc(-c2ccc(Cl)cc2)cc1` returned a melting point of 155 to 157 °C.

`Cc1c(-c2ccccc2)oc2c(C=O)cccc2c1=O` yielded a melting point of 124 to 126 °C.

`OC1(c2ccccc2Cc2ccccc2)CCC2(CC1)OCCO2` displayed a melting point of 97 to 98 °C.

`CN1CCc2cc(Br)[nH]c2C(c2ccccc2)C1` (configuration not stated) yielded a melting point of 132 to 133 °C.

On to `COc1ccc(COc2ccc(-c3ccc(C#N)c(=O)[nH]3)cc2OC)cc1OC`, for which the melting point lay within 220 to 221 °C.

`COC(=O)c1ccc(Cn2c(=O)c3cc(C#CCc4ccc(OC)cc4)ccc3n3cnnc23)cc1`: the melting point is 249 °C.

In turn, `CNc1ncnc2ccc(I)cc12` displayed a melting point of 245 °C.

`CC1(C)OC(c2ccc(S(N)(=O)=O)cc2)=C(c2cc3ccccc3s2)C1=O`: the melting point fell in the range of 120 to 121 °C.

For `CCNCCCOc1ccc(-c2ccc(C(=O)O)cc2)cc1-c1ccc2c(c1)C(C)(C)CCC2(C)C`, the melting point came out at 233 °C.

In turn, `CCOc1cc(N)c(Cl)cc1C(=O)NCC1CN(CC2CCN(C(N)=O)CC2)CCO1` (configuration not stated) came in with a melting point of 201 to 207 °C.

`CCCCCCCCCc1c(Cl)nc(-c2ccc(OC)c(F)c2)nc1Cl` gave a melting point of 59 to 60 °C.

With `Nc1ccncc1Oc1ccc2ccccc2c1`, the melting point lay in the range of 117 to 118 °C.

`CC1(C)CCC(=O)c2c1oc(-c1ccncc1)c2-c1ccccc1` yielded a melting point of 156 to 157 °C.

`CCOc1ccc(C(=O)NCc2ccc3c(c2)C(=O)N(C2(C)CCC(=O)NC2=O)C3=O)nn1` (configuration not stated): the melting point was 126 to 128 °C.

Turning to `CCOc1cc2c(c3c1OC(C)(C)C3)C(c1cccc(C(=O)NC)c1)=NC(C)(C)C2`, the melting point was in the range of 173 to 174 °C.

As to `COc1ccc(-c2nn(CCCCCCBr)c(=O)c3ccccc23)cc1OC`, the melting point lay in the range of 83 to 84 °C.

Molecule `CCn1c(=O)c2[nH]c(/C=C/c3cc(C)ccc3C)nc2n(CC)c1=O` came in with a melting point of 282 °C.

`CC1(C)OC[C@H](COc2nc(Oc3ccc(F)cc3F)nc3[nH]nc(-c4ccccc4Cl)c23)O1` came in with a melting point of 70.1 to 75.9 °C.

On to `Cc1ccc(N2CN(C(=O)c3ccccc3)C3=NN=CC3=C2N)cc1`, for which the melting point was 297 to 300 °C.

Molecule `COc1ccc(S(=O)(=O)Nc2nc(-c3cccc([N+](=O)[O-])c3)cs2)cc1OC` registered a melting point of 185 °C.

`CC(=O)Nc1cnc(-c2ccccc2)nc1N` yielded a melting point of 224 to 225 °C.

Take `N#CCc1ccccc1Oc1ccc(Br)cc1`: the melting point is 56 to 58 °C.

`COc1cccc(-c2nc3n(n2)Cc2ccc(OC)cc2-3)c1` returned a melting point of 136 to 138 °C.

`CCSC(=NC(=O)c1ccccc1)Nc1ccccc1F` returned a melting point of 95 to 97 °C.

For `CN1CC(=O)Nc2ccc([N+](=O)[O-])cc2C1=O`, the melting point lay within 250 to 252 °C.

`Cc1c2ccccc2c(O[Si](C)(C)C(C)(C)C)c2occ(CCC=O)c12` showed a melting point of 152 to 154 °C.

`O=C(O)Cc1ccccc1CBr` returned a melting point of 110 °C.

Molecule `NCCCNC(c1ccccc1)(c1ccccc1)c1ccccc1` showed a melting point of 59 to 61 °C.

With `O=C(O)C1=CS[C@@H]2/C(=C/c3ccc4c(c3)N(Cc3ccccc3)C(=O)c3ccccc3O4)C(=O)N12`, the melting point was determined as 179 °C.

In turn, `CC(C)(Oc1ccc(CCC(=O)c2ccc(-c3ccccc3)s2)c(Cl)c1Cl)C(=O)O` returned a melting point of 179 to 180 °C.

With `O=C(O)C(CC1CCCC1)c1ccc([N+](=O)[O-])cc1` (configuration not stated), the melting point is 119 to 125 °C.

Consider `CC(C)(C)Nc1nccc(C#C[Si](C)(C)C)n1`, for which the melting point lay in the range of 71 to 73 °C.

Molecule `O=C1NC(=O)C(c2cn3c4c(cccc24)CC3)C1c1c[nH]c2ccccc12` (configuration not stated) gave a melting point of 144 to 148 °C.

Molecule `COc1ccc(C(=NO)c2cccc(F)c2F)c(O)c1Cl` registered a melting point of 198 to 199 °C.

In turn, `CCOC(=O)C=C1c2ccccc2C=C(OC)c2sccc21` came in with a melting point of 91 to 93 °C.

Turning to `CC1CCc2c(N3CCOCC3)c(F)cc3c(=O)c(C(=O)O)cn1c23` (configuration not stated), the melting point is 279 to 280 °C.

Consider `Cc1cc2cn[nH]c2c(C(=O)NC(C)C)c1NC(=O)c1cc(OCC(F)(F)F)nn1-c1ncccc1Cl`, for which the melting point fell in the range of 247 to 250 °C.

Molecule `CC(=O)NCC1CN(c2ccc(C(=O)c3cnc4n3CCS4)cc2)C(=O)O1` (configuration not stated) gave a melting point of 259 to 260 °C.

Molecule `CCc1oc2cccc(O)c2c1C` gave a melting point of 105 to 107 °C.

`CSc1nc(Cl)nc2sc(C)cc12` came in with a melting point of 111 to 112 °C.

The molecule `Nc1ccc(F)c(F)c1NC(=S)Nc1c(Cl)cccc1Cl` gave a melting point of over 310 °C.

Molecule `O=C(CCCN1CCCCC1)c1ccc2c(c1)Cc1cc(C(=O)CCCN3CCCCC3)ccc1O2` came in with a melting point of 115 to 117 °C.

For the molecule `CCOC(=O)C1C(=O)NC(=O)C(C#N)C12CCCCC2` (configuration not stated), the melting point fell in the range of 167 to 170 °C.

`CCc1cccc(NC(=O)c2nnn[nH]2)c1O` returned a melting point of 185 to 187 °C.

`CC(=O)Nc1ccc(Br)c2c1CN(C(C)=O)CC2` showed a melting point of 127 to 130 °C.

The molecule `CC(C)c1ccc(S(=O)(=O)n2c(Cc3ccc(C(=O)O)c(O)c3)cc3cc(C(F)(F)F)ccc32)cc1` displayed a melting point of 150 °C.

Molecule `O=C(O)c1ccc2oc3c(c(=O)c2c1)CCC3=Cc1ccccn1` gave a melting point of 325 to 328 °C.

The molecule `S=C(Nc1ccccc1)Nc1ncccc1OCc1c(Cl)cccc1Cl` displayed a melting point of 148 to 149 °C.

Turning to `NS(=O)(=O)c1ccc(Cl)c(NC(=O)c2cnn3c(C(F)(F)F)cc(-c4ccc(C(F)(F)F)cc4)nc23)c1`, the melting point was found to be 300 °C.

Turning to `O=C1c2ccccc2C(=O)N1CCON1CCNC1=Nc1c(Cl)cccc1Cl`, the melting point fell in the range of 129 to 130 °C.

Molecule `Nc1nc(N)nc(C=Cc2ccc(C=C3C(=O)NC(=O)NC3=O)cc2)n1` came in with a melting point of over 350 °C.

On to `Cc1[nH]n(-c2ccccc2)c(=O)c1C(=O)C(C)C`, for which the melting point was 61 to 62 °C.

Molecule `CCN1c2ncc(CCc3ccncc3)cc2C(=O)N(C)c2ccc(C#N)nc21` gave a melting point of 149 to 150 °C.

In turn, `CCOC(=O)COc1ccc(C(=O)Nc2ccccc2Sc2cccc(O)c2-c2nnn[nH]2)cc1` gave a melting point of 155 to 157 °C.

For the molecule `O=C(Oc1cc(F)ccc1[N+](=O)[O-])c1cc2cc(CCl)ccc2oc1=O`, the melting point was 205 to 208 °C.

Molecule `CCOC(=O)c1ncc2c(c1CBr)c1ccccc1n2C(C)=O` showed a melting point of 188 to 189 °C.

The molecule `COc1ccc2c(c1)CCC1CCNC(=O)C(CCN3CCCCC3)=C21` (configuration not stated) came in with a melting point of 125 to 128 °C.

The molecule `O=C(Nc1ccc(C(=O)N2Cc3cccn3Cc3ccccc32)cc1)c1cc(Cl)cc(Cl)c1Cl` displayed a melting point of 231 to 234 °C.

With `Cc1c(-c2ccc(F)cc2)c(-c2ccccc2)nn1C(C)C`, the melting point fell in the range of 135 to 137 °C.

As to `CCCCCS(=O)(=O)NC(=O)/C=C/c1ccc(OC(C)C)cc1Oc1ncc(C(F)(F)F)cc1Cl`, the melting point was 142 to 144 °C.

Molecule `Cc1cc(C)n2nc(C)cc2n1` registered a melting point of 70 to 73 °C.

On to `Cc1c(CNCC(C)C)n(C)c2ccc(NC(=O)c3ccc(OCC4CC4)cc3)cc12`, for which the melting point lay within 142 to 143 °C.

`COc1ccc(CC#N)c(CCNC(C)=O)c1OC`: the melting point lay within 134 to 136 °C.

In turn, `O=C(NCC1CCCO1)c1c[nH]c2ccccc2c1=O` (configuration not stated) showed a melting point of 205 to 209 °C.

Molecule `Cc1c(C)c2c(c(C)c1N)CC(C)(CN1CCC(c3ccncc3)CC1)O2` (configuration not stated) gave a melting point of 126 to 128 °C.

`O=C(CCc1cnoc1-c1ccccc1)Nc1ccc2ccccc2n1` returned a melting point of 112 to 113 °C.

`Cc1ccc(N(C)S(=O)(=O)c2cccnc2Cl)c2[nH]c(C3=NCC(CN4CCOCC4)S3)cc12` (configuration not stated) returned a melting point of 151 to 153 °C.

Regarding `O=C1NN=C(c2ccc(C3CCCCC3)cc2)C2CC12` (configuration not stated), the melting point was 211 to 212 °C.

In turn, `CCNC(=O)NNC=NC(=O)c1nc(Cl)c(NC(C)C)nc1N` came in with a melting point of 148 to 150 °C.

`C[Si](C)(C)C#CC1(O)CCCCC1` yielded a melting point of 72 to 73 °C.

Regarding `Cc1cc(C#N)ccc1N1CCCn2c1nc1c(Cl)ccc(C(OCC(F)(F)F)C3CC3)c12` (configuration not stated), the melting point was in the range of 207 to 209 °C.

Values taken from a melting point compilation (Tetko et al.; mined from patent text by program, amines drawn as free bases though some values may be those of a salt).
